Where “and” joins values, the source holds several entries; their conditions need not be identical. Equal entries are not always repeated. Toxic doses and inconclusive results are not listed. Cut-off read from the data, not from the text of the source: active = T/C of 150% or more; inactive = T/C below 125%.
Tested on: L1210 leukemia ip in BDF1 mice, survival T/C
Assay: NCI In Vivo Anticancer Drug Screen. Data for tumor model L1210 Leukemia (intraperitoneal) in B6D2F1 (BDF1) mice
Settings: endpoint: mean survival time, higher = longer survival
Summary of the method: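 Transplanted-tumor mice were given test agent; controls received vehicle only. Survival readings from the two groups were divided (treated over control).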

[1] = dose: 25.0 mg/kg/injection, schedule: Q01DX009 (ip), vehicle: saline
[2] = dose: 50.0 mg/kg/injection, schedule: Q01DX009 (ip), vehicle: saline
[3] = dose: 100.0 mg/kg/injection, schedule: Q01DX001 (ip), vehicle: saline
[4] = dose: 100.0 mg/kg/injection, schedule: Q01DX009 (ip), vehicle: saline
[5] = dose: 200.0 mg/kg/injection, schedule: Q01DX001 (ip), vehicle: saline
[6] = dose: 400.0 mg/kg/injection, schedule: Q01DX001 (ip), vehicle: saline
[7] = dose: 100.0 mg/kg/injection, schedule: Q01DX009 (ip), vehicle: Klucel (hydroxypropylcellulose) (HPC)
[8] = dose: 100.0 mg/kg/injection, schedule: Q04DX003 (ip), vehicle: Klucel (hydroxypropylcellulose) (HPC)
[9] = dose: 200.0 mg/kg/injection, schedule: Q04DX003 (ip), vehicle: Klucel (hydroxypropylcellulose) (HPC)
[10] = dose: 400.0 mg/kg/injection, schedule: Q04DX003 (ip), vehicle: Klucel (hydroxypropylcellulose) (HPC)

Measured: T/C

CCOC(=O)C(NC(=O)C(Cc1ccc(N(CCCl)CCCl)cc1)NC(C)=O)C(C)C (configuration not stated)
inactive: dose: 7.5 mg/kg/injection, schedule: Q01DX009 (ip), vehicle: alcohol 96 % of control | dose: 15.0 mg/kg/injection, schedule: Q01DX009 (ip), vehicle: alcohol 120 % of control | dose: 24.0 mg/kg/injection, schedule: Q01DX009 (ip), vehicle: carboxymethylcellulose (CMC) 96 % of control | [1] 98 % of control | dose: 30.0 mg/kg/injection, schedule: Q04DX003 (ip), vehicle: alcohol 110 % of control | dose: 36.0 mg/kg/injection, schedule: Q01DX009 (ip), vehicle: carboxymethylcellulose (CMC) 98 % of control | dose: 50.0 mg/kg/injection, schedule: Q01DX001 (ip), vehicle: saline 111 % of control | dose: 50.0 mg/kg/injection, schedule: Q01DX009 (ip), vehicle: carboxymethylcellulose (CMC) 104 % of control | [2] 101 % of control | dose: 50.0 mg/kg/injection, schedule: Q04DX003 (ip), vehicle: alcohol 110 % of control | dose: 75.0 mg/kg/injection, schedule: Q01DX009 (ip), vehicle: carboxymethylcellulose (CMC) 102 % of control | dose: 75.0 mg/kg/injection, schedule: Q04DX003 (ip), vehicle: alcohol 121 % of control | [3] 105 % of control | [4] 109 % of control | dose: 112.0 mg/kg/injection, schedule: Q01DX009 (ip), vehicle: alcohol 103 % of control and 108 % of control | dose: 112.0 mg/kg/injection, schedule: Q01DX009 (ip), vehicle: carboxymethylcellulose (CMC) 96 % of control | dose: 112.0 mg/kg/injection, schedule: Q04DX003 (ip), vehicle: alcohol 118 % of control | dose: 178.0 mg/kg/injection, schedule: Q01DX009 (ip), vehicle: carboxymethylcellulose (CMC) 107 % of control | dose: 178.0 mg/kg/injection, schedule: Q01DX015 (ip), vehicle: saline 103 % of control | [5] 105 % of control | dose: 267.0 mg/kg/injection, schedule: Q01DX009 (ip), vehicle: carboxymethylcellulose (CMC) 96 % of control | dose: 267.0 mg/kg/injection, schedule: Q01DX015 (ip), vehicle: saline 108 % of control | [6] 115 % of control | dose: 400.0 mg/kg/injection, schedule: Q01DX009 (ip), vehicle: carboxymethylcellulose (CMC) 98 % of control | dose: 400.0 mg/kg/injection, schedule: Q01DX015 (ip), vehicle: saline 106 % of control | dose: 600.0 mg/kg/injection, schedule: Q01DX009 (ip), vehicle: carboxymethylcellulose (CMC) 96 % of control | dose: 600.0 mg/kg/injection, schedule: Q01DX015 (ip), vehicle: saline 94 % of control

NC(N)=N/N=C(/c1ccccc1)c1ccccc1N
inactive: dose: 15.0 mg/kg/injection, schedule: Q01DX Z (ip), vehicle: methylcellulose (MC) 105 % of control | dose: 30.0 mg/kg/injection, schedule: Q01DX Z (ip), vehicle: methylcellulose (MC) 102 % of control | dose: 60.0 mg/kg/injection, schedule: Q01DX Z (ip), vehicle: methylcellulose (MC) 105 % of control | dose: 120.0 mg/kg/injection, schedule: Q01DX Z (ip), vehicle: methylcellulose (MC) 97 % of control | dose: 120.0 mg/kg/injection, schedule: Q01DX Z (oral), vehicle: methylcellulose (MC) 88 % of control | dose: 240.0 mg/kg/injection, schedule: Q01DX Z (ip), vehicle: methylcellulose (MC) 88 % of control | dose: 240.0 mg/kg/injection, schedule: Q01DX Z (oral), vehicle: methylcellulose (MC) 98 % of control | dose: 480.0 mg/kg/injection, schedule: Q01DX Z (oral), vehicle: methylcellulose (MC) 101 % of control

O=C1C=CC(=O)N1Cc1ccncc1
inactive: [3] 101 % of control | [5] 95 % of control | [6] 95 % of control

Cc1nccn1CC(=O)c1ccccc1
inactive: dose: 25.0 mg/kg/injection, schedule: Q01DX001 (ip), vehicle: Klucel (hydroxypropylcellulose) (HPC) 102 % of control | dose: 25.0 mg/kg/injection, schedule: Q01DX009 (ip), vehicle: Klucel (hydroxypropylcellulose) (HPC) 91 % of control | dose: 25.0 mg/kg/injection, schedule: Q04DX003 (ip), vehicle: Klucel (hydroxypropylcellulose) (HPC) 100 % of control | dose: 50.0 mg/kg/injection, schedule: Q01DX001 (ip), vehicle: Klucel (hydroxypropylcellulose) (HPC) 113 % of control | dose: 50.0 mg/kg/injection, schedule: Q01DX009 (ip), vehicle: Klucel (hydroxypropylcellulose) (HPC) 94 % of control and 108 % of control | dose: 50.0 mg/kg/injection, schedule: Q04DX003 (ip), vehicle: Klucel (hydroxypropylcellulose) (HPC) 103 % of control | dose: 100.0 mg/kg/injection, schedule: Q01DX001 (ip), vehicle: Klucel (hydroxypropylcellulose) (HPC) 95 % of control | [7] 97 % of control | dose: 100.0 mg/kg/injection, schedule: Q04DX002 (ip), vehicle: Klucel (hydroxypropylcellulose) (HPC) 96 % of control and 106 % of control | [8] 94 % of control | dose: 200.0 mg/kg/injection, schedule: Q04DX002 (ip), vehicle: Klucel (hydroxypropylcellulose) (HPC) 101 % of control

CC(CO)NC(=O)C1C=C2c3cccc4[nH]cc(c34)CC2N(C)C1 (configuration not stated)
inactive: dose: 3.12 mg/kg/injection, schedule: Q04DX003 (ip), vehicle: saline 114 % of control | dose: 6.25 mg/kg/injection, schedule: Q04DX003 (ip), vehicle: saline 114 % of control | dose: 12.5 mg/kg/injection, schedule: Q01DX009 (ip), vehicle: saline 109 % of control | dose: 12.5 mg/kg/injection, schedule: Q04DX003 (ip), vehicle: saline 114 % of control | [1] 95 % of control | dose: 25.0 mg/kg/injection, schedule: Q04DX003 (ip), vehicle: saline 101 % of control | [2] 96 % of control | dose: 50.0 mg/kg/injection, schedule: Q04DX003 (ip), vehicle: saline 103 % of control | [4] 95 % of control | dose: 100.0 mg/kg/injection, schedule: Q04DX003 (ip), vehicle: saline 100 % of control | dose: 200.0 mg/kg/injection, schedule: Q01DX009 (ip), vehicle: saline 96 % of control | dose: 200.0 mg/kg/injection, schedule: Q04DX003 (ip), vehicle: saline 102 % of control

CCOC(=O)c1cnc(SC)nc1NCc1ccccc1Cl
inactive: [7] 102 % of control | [8] 106 % of control | dose: 200.0 mg/kg/injection, schedule: Q01DX009 (ip), vehicle: Klucel (hydroxypropylcellulose) (HPC) 97 % of control | [9] 105 % of control | dose: 400.0 mg/kg/injection, schedule: Q01DX009 (ip), vehicle: Klucel (hydroxypropylcellulose) (HPC) 97 % of control | [10] 95 % of control

Nc1cccc2c1/C(=N/O)c1ccccc1-2
inactive: dose: 100.0 mg/kg/injection, schedule: Q01DX001 (ip), vehicle: carboxymethylcellulose (CMC) 98 % of control | dose: 200.0 mg/kg/injection, schedule: Q01DX001 (ip), vehicle: carboxymethylcellulose (CMC) 100 % of control | dose: 400.0 mg/kg/injection, schedule: Q01DX001 (ip), vehicle: carboxymethylcellulose (CMC) 98 % of control

CC(=O)Cc1cc(C)c(C(C)=O)c(O)c1C(C)=O
inactive: [8] 103 % of control | [9] 108 % of control | [10] 105 % of control

CCCCCC(=O)c1c(O)cc(=O)oc1C
inactive: dose: 3.12 mg/kg/injection, schedule: Q01DX009 (ip), vehicle: Klucel (hydroxypropylcellulose) (HPC) 95 % of control | dose: 6.25 mg/kg/injection, schedule: Q01DX009 (ip), vehicle: Klucel (hydroxypropylcellulose) (HPC) 98 % of control | dose: 12.5 mg/kg/injection, schedule: Q01DX009 (ip), vehicle: Klucel (hydroxypropylcellulose) (HPC) 103 % of control | [8] 90 % of control

— PubChem BioAssay AID248 (DTP/NCI, 2004)
